Several values for one entry are separate records, joined by “and”; a condition that tells them apart may be missing. Identical values can stand only once.
Test system: 349418-098-R tumor spheroid viability
Test: Anticancer human tumor 349418-098-R patient-derived lung adenocarcinoma cell line growth inhibition
Details: spheroids with HUVEC and MSC; for viability, T/C: stronger effect = lower value
In short: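 Complex tumor spheroids combined malignant cells with endothelial cells and mesenchymal stem cells. DNA-damaging drugs and DNA repair inhibitors were tested alone and in combination, at half-log dilutions down from clinical Cmax (top 10 microM if Cmax unknown), 0.25% DMSO final.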
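Note: spheroids exposed to compound for 7 days before measurement.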
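Throughout, for viability, T/C: percent of vehicle control viability with 100% = DMSO-treated spheroids.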

**Q.** What does the source list for `CC(C)n1c(=O)n(C)c2cnc3cc(F)c(-c4ccc(OCCCN5CCCCC5)nc4)cc3c21` + CC[C@@]1(O)C(=O)OCc2c1cc1n(c2=O)Cc2cc3c(CN(C)C)c(O)ccc3nc2-1?
**A.** IC50 (curve of first compound, second compound 0.003 µM): > 10000 nM; IC50 (curve of first compound, second compound 0.00949 µM): 4930 nM; IC50 (curve of first compound, second compound 0.03 µM): < 31.6 nM; IC50 (curve of first compound, second compound 0.0949 µM): < 31.6 nM; IC50 (curve of first compound, second compound 0.3 µM): < 31.6 nM; viability, T/C (second compound 0.003 µM, first compound 0.0316 µM): 96.9%; viability, T/C (second compound 0.003 µM, first compound 0.1 µM): 93.2%; viability, T/C (second compound 0.003 µM, first compound 0.316 µM): 93.8%; viability, T/C (second compound 0.003 µM, first compound 1 µM): 99.6%; viability, T/C (second compound 0.003 µM, first compound 3.16 µM): 100%; viability, T/C (second compound 0.003 µM, first compound 10 µM): 63.9%; viability, T/C (second compound 0.00949 µM, first compound 0.0316 µM): 67.6%; viability, T/C (second compound 0.00949 µM, first compound 0.1 µM): 69.3%; viability, T/C (second compound 0.00949 µM, first compound 0.316 µM): 66.2%; viability, T/C (second compound 0.00949 µM, first compound 1 µM): 67.7%; viability, T/C (second compound 0.00949 µM, first compound 3.16 µM): 63.4%; viability, T/C (second compound 0.00949 µM, first compound 10 µM): 28.7%; viability, T/C (second compound 0.03 µM, first compound 0.0316 µM): 24.3%; viability, T/C (second compound 0.03 µM, first compound 0.1 µM): 22%; viability, T/C (second compound 0.03 µM, first compound 0.316 µM): 22.2%; viability, T/C (second compound 0.03 µM, first compound 1 µM): 22.7%; viability, T/C (second compound 0.03 µM, first compound 3.16 µM): 27.8%; viability, T/C (second compound 0.03 µM, first compound 10 µM): 17%; viability, T/C (second compound 0.0949 µM, first compound 0.0316 µM): 7.03%; viability, T/C (second compound 0.0949 µM, first compound 0.1 µM): 9.49%; viability, T/C (second compound 0.0949 µM, first compound 0.316 µM): 9.54%; viability, T/C (second compound 0.0949 µM, first compound 1 µM): 9.81%; viability, T/C (second compound 0.0949 µM, first compound 3.16 µM): 11.7%; viability, T/C (second compound 0.0949 µM, first compound 10 µM): 12.4%; viability, T/C (second compound 0.3 µM, first compound 0.0316 µM): 5.01%; viability, T/C (second compound 0.3 µM, first compound 0.1 µM): 4.88%; viability, T/C (second compound 0.3 µM, first compound 0.316 µM): 5.74%; viability, T/C (second compound 0.3 µM, first compound 1 µM): 6.26%; viability, T/C (second compound 0.3 µM, first compound 3.16 µM): 8.16%; viability, T/C (second compound 0.3 µM, first compound 10 µM): 8.82%

**Q.** What does the source list for `CNCc1ccc(-c2cc(-c3nc(-c4ccc(S(=O)(=O)C(C)C)cc4)cnc3N)on2)cc1` + Cn1nnc2c(C(N)=O)ncn2c1=O?
**A.** IC50 (curve of first compound, second compound 1 µM): 275 nM; IC50 (curve of first compound, second compound 3.16 µM): 382 nM; IC50 (curve of first compound, second compound 10 µM): 401 nM; IC50 (curve of first compound, second compound 31.6 µM): 260 nM; IC50 (curve of first compound, second compound 100 µM): 214 nM; viability, T/C (second compound 1 µM, first compound 0.00949 µM): 103%; viability, T/C (second compound 1 µM, first compound 0.03 µM): 100%; viability, T/C (second compound 1 µM, first compound 0.0949 µM): 99.6%; viability, T/C (second compound 1 µM, first compound 0.3 µM): 45.4%; viability, T/C (second compound 1 µM, first compound 0.949 µM): 10.3%; viability, T/C (second compound 1 µM, first compound 3 µM): 1.84%; viability, T/C (second compound 3.16 µM, first compound 0.00949 µM): 108%; viability, T/C (second compound 3.16 µM, first compound 0.03 µM): 101%; viability, T/C (second compound 3.16 µM, first compound 0.0949 µM): 102%; viability, T/C (second compound 3.16 µM, first compound 0.3 µM): 61.2%; viability, T/C (second compound 3.16 µM, first compound 0.949 µM): 7.59%; viability, T/C (second compound 3.16 µM, first compound 3 µM): 1.85%; viability, T/C (second compound 10 µM, first compound 0.00949 µM): 104%; viability, T/C (second compound 10 µM, first compound 0.03 µM): 103%; viability, T/C (second compound 10 µM, first compound 0.0949 µM): 97.9%; viability, T/C (second compound 10 µM, first compound 0.3 µM): 64.5%; viability, T/C (second compound 10 µM, first compound 0.949 µM): 7.44%; viability, T/C (second compound 10 µM, first compound 3 µM): 1.34%; viability, T/C (second compound 31.6 µM, first compound 0.00949 µM): 104%; viability, T/C (second compound 31.6 µM, first compound 0.03 µM): 102%; viability, T/C (second compound 31.6 µM, first compound 0.0949 µM): 99.9%; viability, T/C (second compound 31.6 µM, first compound 0.3 µM): 42.7%; viability, T/C (second compound 31.6 µM, first compound 0.949 µM): 5.84%; viability, T/C (second compound 31.6 µM, first compound 3 µM): 0.96%; viability, T/C (second compound 100 µM, first compound 0.00949 µM): 104%; viability, T/C (second compound 100 µM, first compound 0.03 µM): 106%; viability, T/C (second compound 100 µM, first compound 0.0949 µM): 105%; viability, T/C (second compound 100 µM, first compound 0.3 µM): 27.1%; viability, T/C (second compound 100 µM, first compound 0.949 µM): 4.72%; viability, T/C (second compound 100 µM, first compound 3 µM): 0.67%

**Q.** With `CNCc1ccc(-c2cc(-c3nc(-c4ccc(S(=O)(=O)C(C)C)cc4)cnc3N)on2)cc1` as the molecule, how does the viability, T/C (compound 0.00949 µM) read?
**A.** 99.8% and 99.6% and 96.2%

**Q.** And the viability, T/C (compound 0.03 µM)?
**A.** 104% and 99.5% and 92.1%

**Q.** What about the viability, T/C (compound 0.0949 µM) of the same molecule?
**A.** 94.8% and 98.9% and 94.1%

**Q.** What about the viability, T/C (compound 0.3 µM) of the same molecule?
**A.** 71.1% and 34.7% and 85.6%

**Q.** What about the viability, T/C (compound 0.949 µM) of the same molecule?
**A.** 8.67% and 9.93% and 16.6%

**Q.** What about the viability, T/C (compound 3 µM) of the same molecule?
**A.** 2.53% and 1.43% and 6.14%

**Q.** What about the IC50 (curve of compound) of the same molecule?
**A.** 442 nM and 228 nM and 544 nM

Reference: PubChem BioAssay AID1845197 (Molecular Pharmacology Branch, DTP, NCI, 2023)
